Legend:
[1] = system: HBV replication in HepAD38 cells; assay: Anti-HBV replication assay in HepAD38 cells (QPCR of extracellular HBV DNA); type: cell-based, HBV (genotype D, serotype ayw); settings: Hepatitis B virus, 168 h, 7 days incubation, extracellular HBV DNA by QPCR, read-out: Anti-HBV EC50
How it was run: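 HepAD38 cells (HepG2 carrying tet-repressible HBV genotype D genome) induced by tetracycline withdrawal, treated 7 days at 37 °C with compound ([…], 1-log10 dilutions). Extracellular HBV DNA quantified by QPCR against a standard curve, normalised to DMSO; EC50 from 4-parameter fit.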

[2] = In vitro cytotoxicity assay (MTT cell viability) in HepG2 cells; type: cell-based, human; settings: human
How it was run: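 Parental HepG2 cells in EMEM + 10% FBS were exposed to compounds (8 half-log dilutions, 30 μM to 1.0 nM) for 7 days at 37 °C, 5% CO2. MTT was then added for 3-4 h, formazan dissolved in DMSO and absorbance read at 492 nm; CC50 came from 4-parameter fits against vehicle controls.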

SMILES	EC50 [1] [nM]	CC50 at 7 days [2] [nM]
Cc1cc(NC(=O)c2c(C)c(C(=O)C(=O)N[C@H]3COC[C@@H]3N3CCOCC3)n(C)c2C)ccc1F [Example 711, N-(4-fluoro-3-methylphenyl)-1,2,4-trimethyl-5-(2-(((3R,4R)-4-morpholinotetrahydrofuran-3-yl)amino)-2-oxoacetyl)-1H-pyrrole-3-carboxamide]	< 50	> 30000
Cc1c(C(=O)Nc2ccc(F)cc2)c(C)n(C)c1C(=O)C(=O)N[C@H](C)C(F)(F)F [Example 725, (R)-N-(4-fluorophenyl)-1,2,4-trimethyl-5-(2-oxo-2-((1,1,1-trifluoropropan-2-yl)amino)acetyl)-1H-pyrrole-3-carboxamide]	< 50	> 30000
Cc1cc(NC(=O)c2c(C)c(C(=O)C(=O)NC3(C(F)(F)F)CCOCC3)n(C)c2C)cnc1F [Example 163, N-(6-fluoro-5-methylpyridin-3-yl)-1,2,4-trimethyl-5-(2-oxo-2-((4-(trifluoromethyl)tetrahydro-2H-pyran-4-yl)amino)acetyl)-1H-pyrrole-3-carboxamide]	> 1000	> 30000
Cc1c(C(=O)Nc2ccc(F)c(F)c2)c2n(c1C(=O)C(=O)NCC(C)(C)O)CCCC2 [Example 462, N-(3,4-difluorophenyl)-3-(2-((2-hydroxy-2-methylpropyl)amino)-2-oxoacetyl)-2-methyl-5,6,7,8-tetrahydroindolizine--1 carboxamide]	50 to 499	> 30000
Cc1c(C(=O)NC2CCCC2)c2n(c1C(=O)C(=O)NC1(CO)CCC1)CCCC2 [Example 746, N-cyclopentyl-3-(2-((1-(hydroxymethyl)cyclobutyl)amino)-2-oxoacetyl)-2-methyl-5,6,7,8-tetrahydroindolizine-1-carboxamide]	50 to 499	> 30000
Cc1cc(NC(=O)c2c(C)c(C(=O)C(=O)NC3(C(N)=O)CC3)n(C)c2C)ccc1F [Example 37, 5-(2-((1-carbamoylcyclopropyl)amino)-2-oxoacetyl)-N-(4-fluoro-3-methylphenyl)-1,2,4-trimethyl-1H-pyrrole-3-carboxamide]	< 50	> 30000
Cc1cc(NC(=O)c2c(C)c(C(=O)C(=O)NC3CCN(C4COC4)CC3)n(C)c2C)ccc1F [Example 652, N-(4-fluoro-3-methylphenyl)-1,2,4-trimethyl-5-(2-((1-(oxetan-3-yl)piperidin-4-yl)amino)-2-oxoacetyl)-1H-pyrrole-3-carboxamide]	< 50	> 30000
Cc1c(C(=O)Nc2cc(F)c(F)c(F)c2)c(Cl)c(C(=O)C(=O)N[C@@H]2CCC[C@@H]2O)n1C [Example 374, 4-chloro-5-(2-(((1R,2S)-2-hydroxycyclopentyl)amino)-2-oxoacetyl)-1,2-dimethyl-N-(3,4,5-trifluorophenyl)-1H-pyrrole-3-carboxamide]	< 50	500 to 4990
Cc1cc(NC(=O)c2c(C)c(C(=O)C(=O)NC(C)(C)CO)n(C)c2Cl)ccc1F [Example 391, 2-chloro-N-(44-fluoro-3-methylphenyl)-5-(2-((1-hydroxy-2-methylpropan-2-yl)amino)-2-oxoacetyl)-1 4-dimethyl-1H-pyrrole-3-carboxamide]	> 1000	> 30000
Cc1noc([C@H](C)NC(=O)C(=O)c2c(C)c(C(=O)Nc3ccc(F)c(C)c3)c(C)n2C)n1 [Example 215, (S)-N-(4-fluoro-3-methylphenyl)-1,2,4-trimethyl-5-(2-((1-(3-methyl-1,2,4-oxadiazol-5-yl)ethyl)amino)-2-oxoacetyl)-1H-pyrrole-3-carboxamide]	< 50	> 30000
Cc1nnc(C2(NC(=O)C(=O)c3c(C)c(C(=O)Nc4ccc(F)c(C)c4)c(C)n3C)CC2)o1 [Example 182, N-(4-fluoro-3-methylphenyl)-1,2,4-trimethyl-5-(2-((1-(5-methyl-1,3,4-oxadiazol-2-yl)cyclopropyl)amino)-2-oxoacetyl)-1H-pyrrole-3-carboxamide]	< 50	> 30000
CC(=O)N1CC(C)(NC(=O)C(=O)c2c(C)c(C(=O)Nc3ccc(F)c(C)c3)c(C)n2C)C1 [Example 645, 5-(2-((1-acetyl-3-methylazetidin-3-yl)amno)-2-oxoacetyl)-N-(4-fluoro-3-methylphenyl)-1,2,4-trimethyl-1H-pyrrole-3-carboxamide]	< 50	> 30000
Cc1cc(NC(=O)c2c(C)c(C(=O)C(=O)N[C@H]3CCC[C@H]3O)n(C)c2C)ccc1F [Example 94, N-(4-fluoro-3-methylphenyl)-5-(2-(((1S,2R)-2-hydroxycyclopentyl)amino)-2-oxoacetyl)-1,2,4-trimethyl-1H-pyrrole-3-carboxamide]	< 50	> 30000
Cc1c(C(=O)Nc2cccc(Cl)c2)c(C)n(C)c1C(=O)C(=O)N[C@@H]1CCC[C@@H](O)C1 [Example 689, N-(3-chlorophenyl)-5-(2-(((1R,3R)-3-hydroxycyclohexyl)amino)-2-oxoacetyl)-1,2,4-trimethyl-1H-pyrrole-3-carboxamide]	< 50	> 30000
Cc1cc(NC(=O)c2c(C)c(C(=O)C(=O)N[C@@H](C(N)=O)[C@@H](C)O)n(C)c2C)ccc1F [Example 61, 5-(2-(((2R,3R)-1-amino-3-hydroxy-1-oxobutan-2-yl)amino)-2-oxoacetyl)-N-(4-fluoro-3-methylphenyl)-1,2,4-trimethyl-1H-pyrrole-3-carboxamide]	50 to 499	> 30000
Cc1cc(NC(=O)c2c(C)c(C(=O)C(=O)NCC(C)(C)C)n(C)c2C)ccc1F [Example 64, N-(4-fluoro-3-methylphenyl)-1,2,4-trimethyl-5-(2-(neopentylamino)-2-oxoacetyl)-1H-pyrrole-3-carboxamide]	< 50	5000 to 30000
Cc1cc(NC(=O)c2c(C)c(C(=O)C(=O)NC3(C(F)(F)F)CCOCC3)n(C)c2C)ccc1F [Example 109, N-(4-fluoro-3-methylphenyl)-1,2,4-trimethyl-5-(2-oxo-2-((4-(trifluoromethyl)tetrahydro-2H-pyran-4-yl)amino)acetyl)-1H-pyrrole-3-carboxamide]	< 50	> 30000
Cc1cc(NC(=O)c2c(C)c(C(=O)C(=O)N[C@H]3CC[C@](C)(O)CC3)n(C)c2C)ccc1F [Example 213, N-(4-fluoro-3-methylphenyl)-5-(2-(((1r,4r)-4-hydroxy-4-methylcyclohexyl)amino)-2-oxoacetyl)-1,2,4-trimethyl-1H-pyrrole-3-carboxamide]	< 50	> 30000
Cc1cc(NC(=O)c2c(C)c(C(=O)C(=O)NC3(CO)CC3)n3c2CCCC3)ccc1F [Example 445, N-(4-fluoro-3-methylphenyl)-3-(2-((1-(hydroxymethyl)cyclopropyl)amino)-2-oxoacetyl)-2-methyl-5,6,7,8-tetrahydroindolizine-1-carboxamide]	< 50	5000 to 30000
CC[C@@H](CO)NC(=O)C(=O)c1c(C)c(C(=O)Nc2ccc(F)c(C)c2)c(C)n1C [Example 139, (S)-N-(4-fluoro-3-methylphenyl)-5-(2-((1-hydroxybutan-2-yl)amino)-2-oxoacetyl)-1,2,4-trimethyl-1H-pyrrole-3-carboxamide]	< 50	> 30000
Cc1c(C(=O)NC2(C)CCCC2)c2n(c1C(=O)C(=O)NC1(CO)CCC1)CCCC2 [Example 745, 3-(2-((1-(hydroxymethyl)cyclobutyl)amino)-2-oxoacetyl)-2-methyl-N-(1-methylcyclopentyl)-5,6,7,8-tetrahdyroindolizine-1-carboxamide]	50 to 499	> 30000
Cc1c(C(=O)Nc2ccnc(Cl)c2)c(C)n(C)c1C(=O)C(=O)NC(C)(C)CO [Example 190, N-(2-chloropyridin-4-yl)-5-(2-((1-hydroxy-2-methylpropan-2-yl)amino)-2-oxoacetyl)-1,2,4-trimethyl-1H-pyrrole-3-carboxamide]	< 50	> 30000
Cc1cc(NC(=O)c2c(C)c(C(=O)C(=O)N[C@@H]3CCOC[C@H]3O)n(C)c2C)cnc1F [Example 164, N-(6-fluoro-5-methylpyridin-3-yl)-5-(2-(((3S,4R)-3-hydroxytetrahydro-2H-pyran-4-yl)amino)-2-oxoacetyl)-1,2,4-trimethyl-1H-pyrrole-3-carboxamide]	500 to 1000	> 30000
Cc1cc(NC(=O)c2c(C)c(C(=O)C(=O)NC34CC5CC(CC(O)(C5)C3)C4)n(C)c2C)ccc1F [Example 15, N-(4-fluoro-3-methylphenyl)-5-(2-(((1r,3s,5R,7S)-3-hydroxyadamantan-1-yl)amino)-2-oxoacetyl)-1,2,4-trimethyl-1H-pyrrole-3-carboxamide]	< 50	> 30000
O=C(NC1(CO)CC1)C(=O)c1c(Cl)c(C(=O)Nc2ccc(F)c(Cl)c2)c2n1CCCC2 [Example 501, 2-chloro-N-(3-chloro-4-fluorophenyl)-3-(2-((1-(hydroxymethyl)cyclopropyl)amino)-2-oxoacetyl)-5,6,7,8-tetrahydroindolizine--1 carboxamide]	50 to 499	5000 to 30000
O=C(N[C@H]1COC[C@@H]1O)C(=O)c1c(Cl)c(C(=O)Nc2ccc(F)c(Cl)c2)c2n1CCCC2 [Example 513, 2-chloro-N-(3-chloro-4-fluorophenyl)-3-(2-(((3S,4R)-4-hydroxytetrahydrofuran-3-yl)amino)-2-oxoacetyl)-5,6,7,8-tetrahydroindolizine-1-carboxamide]	50 to 499	> 30000
